Results published in patent US20100227797A1, “USE OF CYCLOLIGNANS FOR THE TREATMENT OF TYPE 2 DIABETES AND AS CONTRACEPTIVES” (AXELAR AB, priority 2006, published 2010).
Several values for one entry are separate records, joined by “and”; a condition that tells them apart may be missing. Equal values may be shown once. Marks after values point to notes of the source that are not given here.

Experiments:
[1] = system: macular degeneration lesions; experiment: Laser induction of macular degeneration lesions, mouse model; assay type: in vivo, C57Bl/6 mice; parameters: Area of macular degeneration: scale not given here
Description: To induce macular degeneration lesions adult C57Bl/6 mice were anesthetized and three laser spots were placed in fundus flavimaculatus of the choroidea with a krypton red laser (614 nm, […], 0.05 second, 200 mW). The mice were then treated with PPP (20 mg/kg/12 h) intraperitoneally using DMSO as vehicle for two weeks. Control mice were treated with vehicle only. Twenty mice were treated in each group. Two weeks after the laser treatment, the animals were perfused with 3% FITC-conjugated high-molecular-weight dextran, sacrificed and choroidal flat mounts were prepared. Flat-mounts were examined with fluorescence microscopy Axioskop microscope. Macular degeneration lesions were identified as FITC-perfused vessels. Image-Pro Plus software was used to measure the area of each CNV lesion. Data were recorded as area of macular degeneration lesions (μm^2). Macular degeneration is the leading cause of vision loss. Macular degeneration lesions were induced in 40 adult C57Bl/6 mice by laser. Twenty animals received intraperitoneal (i.p.) injections of picropodophyllin (PPP; 20 mg/kg/12 h) for 2 weeks. Controls received i.p. injections of vehicle. Two weeks after the laser treatment the animals were sacrificed and choroidal flat mounts were prepared. Flat-mounts were examined with fluorescence microscopy. Image-Pro Plus software was used to measure the area of each CNV lesion.

ovulation = experiment: Effect on ovulation in a mouse model; assay type: in vivo; conditions: female mice
Description: Female mice were treated with picropodophyllin (PPP; 20 mg/kg/12 h, given intrapritoneally) on days −1 and 0 of mating. The vaginal plug was checked on the next morning. Six animals from each group were sacrificed 4 days after mating. The organs collected were ovaries, uterus, liver and spleen for biochemical analysis.

[2] = Assay of blood glucose in mice after one week picropodophyllin treatment; assay type: in vivo, SCID mice; conditions: 20 mg/kg/12 h i.p.
Description: Ten weeks old SCID mice were treated with PPP (20 mg/kg/12 h) intraperitoneally using DMSO as vehicle. Control mice were treated with vehicle only. Three mice were treated in each group. After treatment for 7 days, the mice were sacrificed 4 h after the last injections. Blood samples were taken and the concentration of glucose in the serum was determined by a dry slide technique using Vitros 950 Chemistry System. In this experiment, healthy SCID mice were treated with picropodophyllin by intraperitoneal injections twice daily, the dose being 20 mg/kg/12 h. The control group was treated with the vehicle only (totally per day: 20 μL DMSO). Each group included 3 mice.

[3] = system: implantation of the embryo; experiment: Effect on implantation in a mouse model; assay type: in vivo, mice; conditions: 20 mg/kg/12 h i.p., day 3 to 6 after plug
Description: The animals were put for mating and the vaginal plug was checked on the next morning. Six female mice positive for vaginal plug were treated with picropodophyllin (20 mg/kg/12 h, given intraperitoneally) and six with vehicle (controls) from day 3 to 6 after the plug. They were sacrificed on day 9 after ovulation. The organs collected were ovaries, uterus, liver and spleen for biochemical analysis.

COc1cc([C@@H]2c3cc4c(cc3[C@H](O)[C@H]3COC(=O)[C@@H]23)OCO4)cc(OC)c1OC [PPP, picropodophyllin]
Area of macular degeneration ([1]; mean, C57Bl/6 mice, 20 mg/kg/12 h i.p. for 2 weeks after laser, vehicle mean 2.565): Mean: 1.753 μm^2
Decrease in macular degeneration lesion area ([1]; versus vehicle, 20 mg/kg/12 h i.p. for 2 weeks, statistically significant): 32%
Number of mice with positive plug (ovulation; 20 mg/kg/12 h i.p. on days -1 and 0 of mating, n = 36, vehicle 3 of 6): n = 0
Percent ovulated mice (ovulation; 20 mg/kg/12 h i.p. on days -1 and 0 of mating, vehicle 50%): 0%
Inhibition of ovulation (ovulation; 20 mg/kg/12 h i.p., P=0.005919, Fishers exact test): did not ovulate at all
Effect on blood glucose levels ([2]; SCID mice, one week, compared to controls): decreased the blood glucose levels
Glucose level in serum ([2]; individual SCID mice, 7 days, sampled 4 h after last injection, 20 mg/kg): 4.5 mM (2×) and 5.7 mM
Glucose level in serum, mean ([2]; mean of 3 SCID mice, 7 days, vehicle control mean 7.0): 4.9 mM
Effect on implantation of the embryo ([3]; no statistical significance): interferes negatively with implantation
Number of pregnancies ([3]; 6 plug-positive female mice, sacrificed day 9, vehicle 4 of 6, not statistically significant): 2*
